Measured values from patent US20040077599A1, “Novel spiro[2.4]heptane amino carboxy compounds and derivatives thereof” (priority 2000, published 2004).
Read-outs that look alike come from different tables or passages of the source.

Experiments:
[1] = system: Group II/III metabotropic glutamate receptors (mGluRs); assay: Cyclic AMP assay (forskolin-induced cyclic AMP accumulation in cortical slices); format: cell-based, Sprague Dawley rat; conditions: rat cortical slices; for Group II/III Agonist: inhibits forskolin-induced cyclic AMP accumulation; for Group II/III Antagonist: inhibits the glutamate-caused decrease in forskolin-induced cyclic AMP accumulation
Procedure: The assay of cyclic AMP formation can be performed as described previously (Tovey et al., Clinica Chimica Acta, 56, 221-234, 1974). The assay can be modelled on the cyclic AMP assay kit available from Amersham, which in turn, is based on the assay created by Tovey et al. Briefly, samples are prepared from Sprague Dawley rat (225-250 g) cortical slices. Slices are incubated with the drug, and then challenged with forskolin to induce cyclic AMP release. Following termination of the reaction by boiling, the slices are homogenized and centrifuged. Samples of supernatant are then incubated for 2-3 hours with a known quantity of [^3H]cAMP and a binding protein. When the incubation is complete, the bound cyclic AMP is separated from the free cyclic AMP by centrifugation with charcoal. The resulting supernatant (containing free cyclic AMP) is then analyzed by liquid scintillation counting. The amount of unbound cyclic AMP can be calculated from a standard curve previously determined with various samples of free cyclic AMP.
Group II/III metabotropic glutamate receptors (mGluRs) are negatively coupled to adenylate cyclase, and agonists of these receptors lead to a decrease in intracellular cyclic AMP accumulation.
The assay has been modeled on the cyclic AMP assay kit available from Amersham. This kit, in turn, is based on the assay created by Tovey et al. (1974). Briefly, the samples were prepared from Sprague Dawley rat (225-250 g) cortical slices. Slices were incubated with the test compound (drug), and then challenged with forskolin to induce cyclic AMP release. Following termination of the reaction by boiling, the slices were homogenized and centrifuged. Samples of supernatant were then incubated for 2-3 hours with a known quantity of [^3H]cAMP and a binding protein. When the incubation was complete, the bound cyclic AMP was separated from the free cyclic AMP by centrifugation with charcoal. The resulting supernatant (containing free cyclic AMP) was then analyzed by liquid scintillation counting. The amount of unbound cyclic AMP was calculated from a standard curve previously determined with various samples of free cyclic AMP.
If the drugs tested inhibit forskolin-induced cyclic AMP accumulation, they are considered to be Group II/III agonists. Conversely, if they inhibit the decrease in forskolin-induced cyclic AMP accumulation caused by glutamate, they are considered to be Group II/III antagonists.

[2] = system: Group I metabotropic glutamate receptors (mGluRs); assay: Phosphatidylinositol assay (inositol phosphate accumulation in neonatal tissue slices); format: cell-based, Sprague Dawley rat; conditions: neonatal rat slices, 45 minutes; for EC50: antagonist mode vs ACPD; for Group I Agonist: increase in intracellular free inositol phosphate accumulation; for Group I Antagonist: inhibits inositol phosphate accumulation induced by ACPD
Procedure: Phosphatidylinositol (PI) hydrolysis can be measured as described below: Briefly, cross-chopped slices are prepared from neonatal Sprague Dawley rat tissue (age: p7-p14). The slices are pre-labelled with [^3H] myo-inositol. Following pre-labelling, the slices are incubated with the test drugs and standard (known Group I agonists i.e. ACPD) for a period of 45 minutes. The incubation is terminated by the addition of chloroform/methanol/HCl (100:200:2). The resulting mixture is separated into two phases by the addition of chloroform and distilled water. The aqueous fraction is applied to ion exchange columns, and inositol phosphates are eluted using 800 mM Ammonium Formate/100 mM Formic Acid. The eluent is then analyzed using liquid scintillation counting. The amount of inositol phosphate accumulation is expressed as a percentage of that induced by ACPD.
Group I metabotropic glutamate receptors (mGluRs) are positively coupled on inositol phosphate metabolism. Agonists at these receptors lead to an increase in intracellular free inositol phosphates, while antagonists inhibit the increase in intracellular free inositol phosphate induced by standard agonists (i.e. ACPD).
Cross-chopped slices were prepared from neonatal Sprague Dawley rat tissue (age: p7-p14). The slices were pre-labelled with [^3H] myo-inositol. Following pre-labelling, the slices were incubated with the test compounds and standard (known Group I agonists i.e. ACPD) for a period of 45 minutes. The incubation was terminated by the addition of chloroform/methanol/HCl (100:200:2). The resulting mixture was separated into two phases by the addition of chloroform and distilled water. The aqueous fraction was applied to ion exchange columns, and inositol phosphates were eluted using 800 mM Ammonium Formate/100 mM Formic Acid. The eluent was then analyzed using liquid scintillation counting. The amount of inositol phosphate accumulation was expressed as a percentage of that induced by ACPD.
If the drugs cause an increase in intracellular free inositol phosphate accumulation, they are considered to be Group I agonists. […]

[3] = antagonist mode vs glutamate, read-out: EC50 (M), Group II/III Antagonist
[4] = agonist mode, read-out: EC50 (M), Group II/III Agonist

Row | SMILES | EC50 [1, 3] | Group II/III Agonist [1] | Group II/III Antagonist [1] | EC50 [2] | Group I Agonist [2] | Group I Antagonist [2] | EC50 [1, 4]
1 | N[C@@]1(C(=O)O)CCCC12CC2C(=O)O (some centres unmarked) [Compound 7, Spiro[2.4]heptane-4-amino-1,4-dicarboxylic acid] | 1.4e-09 M | No | Yes | 220 nM | No | Yes | 
2 | N[C@]1(C(=O)O)CCCC12CC2C(=O)O (some centres unmarked) [Compound 8, Spiro[2.4]heptane-4-amino-1,4-dicarboxylic acid] | 1e-06 M | No | yes | 94 nM | No | Yes | 
3 | NC1(C(=O)O)CCCC12C(C(=O)O)C2c1ccccc1 (centres unmarked) [Compound 16, Spiro[2.4]heptane4-amino-2-phenyl-1,4-dicarboxylic Acid] |  | Yes | No | 100 nM | No | Yes | 1e-09 M
4 | NC1(C(=O)O)CC2(CC2C(=O)O)c2ccccc21 (centres unmarked) [Compound 22, 1-Amino-1-carboxyindan-3-spiro-cyclopropanecarboxylic Acid] | 8.7e-10 M | No | No |  | No | No | 
5 | NC(C(=O)O)C1CCCC12CC2C(=O)O (centres unmarked) [Compound 26, Spiro[4,2]heptane-1-carboxy-4-glycine] |  | Yes | Yes | 88 nM | No | Yes | 1.6e-06 M
6 | NC(C(=O)O)C1CCCC12CC2C(=O)O (centres unmarked) [Compound 27, Spiro[4,2]heptane-1-carboxy-4-glycine] |  | Yes | Yes | 0.84 nM | No | Yes | 8.7e-11 M
